Test results: patent US11952351B2, “Lipid particle, composition comprising lipid particle, and method for delivering activators to cell” (KABUSHIKI KAISHA TOSHIBA, priority 2018, dated 2024)

Tests used:
[1] = tested on: human peripheral blood mononuclear cells PBMCs; assay: vector DNA introduced by liposomes of Table 3, NLuc enzyme activity, PBMC; format: cell-based; conditions: set of compound (2-01) and DOPE; 0.8 μg DNA/well, 48 hours, FIG. 5
Description: (§1) The amount of vector DNA introduced to cells by the liposomes was quantified on the basis of expression of NLuc genes on vector DNA. For evaluating the expression of NLuc, emission thereof was measured with a microtiter plate reader (infinite F200 [trademark], manufactured by Tecan). As the cells, human T-cell leukemia cell lines Jurkat (purchased from American Type Culture Collection) and human peripheral blood mononuclear cells PBMCs (purchased from LONZA Japan) were adopted. After 100 μL of the Jurkat cell suspension (1×10^6 cells/mL) and 100 μL of the PBMC cell suspension (5×10^6 cells/mL) were individually inoculated on a 96-well plate, 1 μL of each liposome solution shown in Table 1 was added so that the DNA amount might be 0.8 μg/well. Thereafter, the cells were incubated in an incubator at 37° C. for 48 hours under an atmosphere of 5% CO2, and then enzyme activity of NLuc was measured. The measurement of NLuc enzyme activity was carried out by use of NanoGlo Luciferase Assay System ([trademark], manufactured by Promega Corporation) with a luminometer according to the manual attached to the kit. The results are shown in FIG. 4 (Jurkat) and FIG. 5 (PBMC).

[2] = tested on: human T-cell leukemia cell lines Jurkat; assay: vector DNA introduced by liposomes of Table 3, NLuc enzyme activity, Jurkat; format: cell-based; conditions: DOTAP as lipid forming a membrane; 0.8 μg DNA/well, 48 hours, FIG. 4
Description: as §1

[3] = tested on: Jurkat, MCF-7 and Huh-7 cells; assay: vector DNA introduced by liposomes of Table 7, NLuc enzyme activity; format: cell-based, human; conditions: MCF-7, Huh-7, Jurkat; 48 hours, FIGS. 7 to 11
Description: The amount of vector DNA introduced to cells by the liposomes was quantified on the basis of expression of NLuc genes on vector DNA. For evaluating the expression of NLuc, emission thereof was measured with a microtiter plate reader (infinite F200 [trademark], manufactured by Tecan). As the cells, human T-cell leukemia cell lines Jurkat, human breast cancer cell lines MCF-7 and human liver cancer cell lines Huh-7 (purchased from American Type Culture Collection) were adopted. After 100 μL of the cell suspension (1×10^6 cells/mL) was inoculated on a 96-well plate, 1 μL of each liposome solution shown in Table 7 was added. Thereafter, the cells were incubated in an incubator at 37° C. for 48 hours under an atmosphere of 5% CO2, and then enzyme activity of NLuc was measured. The measurement of NLuc enzyme activity was carried out by use of NanoGlo Luciferase Assay System ([trademark], manufactured by Promega Corporation) with a luminometer according to the manual attached to the kit. FIGS. 7 to 9 show graphs in which Examples 4-1 and 4-2 are compared. […] FIGS. 10 and 11 show graphs in which Examples 4-2 and 4-3 are compared.

## CCCCCC/C=C/COC(=O)CCCCCCCC(CCCCCCCC(=O)OC/C=C/CCCCCC)CN(C)CCN(C)C [compound (1-01)]
[1]
  efficiency of NLuc gene expression in PBMC cells: higher efficiency of NLuc gene expression in PBMC cells than the compound of the formula (1-02)

## CCCCCC/C=C/COC(=O)CCCCCCCC(CCCCCCCC(=O)OC/C=C/CCCCCC)CCCCN1CCN(C)CC1 [compound (1-02)]
[2]
  efficiency of NLuc gene expression in Jurkat cells: higher efficiency of NLuc gene expression in Jurkat cells than the compound of the formula (1-01)

## CC1=C(/C=C/C(C)=C/C=C/C(C)=C/C(=O)OCCCN(C)CCOCCOCCN(C)CCCOC(=O)/C=C(C)/C=C/C=C(C)/C=C/C2=C(C)CCCC2(C)C)C(C)(C)CCC1 [compound (2-01)]
[3]
  expression efficiencies of NLuc genes (comparison in words): more easily introduced into adherent cells than into floating cells
